Data from patent publication US9670213B2, “Pteridine ketone derivative and applications thereof as EGFR, BLK, and FLT3 inhibitor” (EAST CHINA UNIVERSITY OF SCIENCE AND TECHNOLOGY, priority 2012, dated 2017).

Columns and labels:
[1] = molecular target: wild-type EGFR (Homo sapiens (Human), UniProt P00533); experiment: In vitro EGFR kinase activity assay (Z'-Lyte); assay type: biochemical; details: EGFR WT; read-out: Inhibitory activity on EGFR kinase (IC50, nM) WT;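 further: Ten-point dose series from 5.1×10^−11 to 1.0×10^−6 mol/L, kinase reaction 1.5 h at room temperature, then 1 h development cleaving unphosphorylated peptide, phosphopeptide as 100% phosphorylation control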
wild-type EGFR, sequence (P00533 25-1210): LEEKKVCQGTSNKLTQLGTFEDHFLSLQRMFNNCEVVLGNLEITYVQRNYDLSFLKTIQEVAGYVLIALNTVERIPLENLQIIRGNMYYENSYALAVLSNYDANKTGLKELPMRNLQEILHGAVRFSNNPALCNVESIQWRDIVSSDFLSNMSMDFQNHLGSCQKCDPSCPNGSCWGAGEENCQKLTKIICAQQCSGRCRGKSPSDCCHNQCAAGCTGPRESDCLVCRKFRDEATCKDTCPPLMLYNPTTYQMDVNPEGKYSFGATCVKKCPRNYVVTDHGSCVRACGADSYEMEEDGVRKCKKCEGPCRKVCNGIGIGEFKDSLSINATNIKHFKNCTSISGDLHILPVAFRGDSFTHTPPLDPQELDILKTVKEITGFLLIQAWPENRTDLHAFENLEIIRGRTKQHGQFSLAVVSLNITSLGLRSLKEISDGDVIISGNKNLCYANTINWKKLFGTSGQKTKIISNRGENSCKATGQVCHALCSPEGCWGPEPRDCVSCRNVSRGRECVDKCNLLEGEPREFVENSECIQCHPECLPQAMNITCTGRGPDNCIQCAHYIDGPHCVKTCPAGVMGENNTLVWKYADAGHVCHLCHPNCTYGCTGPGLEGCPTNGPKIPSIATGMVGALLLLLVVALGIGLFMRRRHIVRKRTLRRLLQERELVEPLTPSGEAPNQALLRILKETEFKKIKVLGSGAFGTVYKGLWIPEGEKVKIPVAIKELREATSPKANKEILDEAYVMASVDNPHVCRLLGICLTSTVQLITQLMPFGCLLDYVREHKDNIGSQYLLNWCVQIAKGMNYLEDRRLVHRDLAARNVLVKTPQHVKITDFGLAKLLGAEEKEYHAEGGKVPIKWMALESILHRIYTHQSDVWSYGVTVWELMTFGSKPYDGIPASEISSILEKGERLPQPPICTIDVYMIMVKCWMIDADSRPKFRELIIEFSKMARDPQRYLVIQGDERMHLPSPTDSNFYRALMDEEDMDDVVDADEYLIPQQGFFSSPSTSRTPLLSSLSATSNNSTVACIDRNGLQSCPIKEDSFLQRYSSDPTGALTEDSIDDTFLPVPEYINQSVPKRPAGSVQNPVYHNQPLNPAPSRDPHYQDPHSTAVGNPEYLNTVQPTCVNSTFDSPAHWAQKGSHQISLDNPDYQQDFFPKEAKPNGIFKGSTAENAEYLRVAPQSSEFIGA
Experimental: (§8) Inhibitory effects in vitro of the compounds provided in the present invention on EGFR kinase activity was tested as follows:
(§9) 10 concentration gradients, from 5.1×10^−11 mol/L to 1.0×10^−6 mol/L, were set for all of the compounds to be tested.
(§10) 10 μL of kinase reaction system comprised 2.5 μL of compound solution, 5 μL of Kinase/peptide mixture, and 2.5 μL of ATP solution. 5 μL of phosphopeptide solution was used in place of kinase/peptide mixture as 100% phosphorylation control. […] After thoroughly mixing the solution within the plate, the plate was incubated at room temperature for 1.5 hours. 5 μL of DevelopmentSolution was added into each well, and then the plate was incubated at room temperature for another 1 hour, and non-phosphorylated peptide was cleaved within this period. Finally, the reaction was quenched by adding 5 μL of Stop Reagent. The Plate was measured with EnVision Multilabel Reader (Perkin Elmer). Experimental data were calculated by using GraphPad Prism version 4.0. Each experiment was repeated more than three times.

[2] = molecular target: EGFR-L858R (Homo sapiens (Human), UniProt P00533, L858R); experiment: In vitro EGFR kinase activity assay (Z'-Lyte); assay type: biochemical; details: read-out: Inhibitory activity on EGFR kinase (IC50, nM) L858R;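 further: Cell-free kinase reaction with peptide substrate and ATP, 1.5 h at room temperature, then development step cleaving non-phosphorylated peptide, 10-point dilution series 0.051–1000 nM, phosphopeptide as 100% phosphorylation control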
EGFR-L858R, sequence (P00533 25-1210 L858R): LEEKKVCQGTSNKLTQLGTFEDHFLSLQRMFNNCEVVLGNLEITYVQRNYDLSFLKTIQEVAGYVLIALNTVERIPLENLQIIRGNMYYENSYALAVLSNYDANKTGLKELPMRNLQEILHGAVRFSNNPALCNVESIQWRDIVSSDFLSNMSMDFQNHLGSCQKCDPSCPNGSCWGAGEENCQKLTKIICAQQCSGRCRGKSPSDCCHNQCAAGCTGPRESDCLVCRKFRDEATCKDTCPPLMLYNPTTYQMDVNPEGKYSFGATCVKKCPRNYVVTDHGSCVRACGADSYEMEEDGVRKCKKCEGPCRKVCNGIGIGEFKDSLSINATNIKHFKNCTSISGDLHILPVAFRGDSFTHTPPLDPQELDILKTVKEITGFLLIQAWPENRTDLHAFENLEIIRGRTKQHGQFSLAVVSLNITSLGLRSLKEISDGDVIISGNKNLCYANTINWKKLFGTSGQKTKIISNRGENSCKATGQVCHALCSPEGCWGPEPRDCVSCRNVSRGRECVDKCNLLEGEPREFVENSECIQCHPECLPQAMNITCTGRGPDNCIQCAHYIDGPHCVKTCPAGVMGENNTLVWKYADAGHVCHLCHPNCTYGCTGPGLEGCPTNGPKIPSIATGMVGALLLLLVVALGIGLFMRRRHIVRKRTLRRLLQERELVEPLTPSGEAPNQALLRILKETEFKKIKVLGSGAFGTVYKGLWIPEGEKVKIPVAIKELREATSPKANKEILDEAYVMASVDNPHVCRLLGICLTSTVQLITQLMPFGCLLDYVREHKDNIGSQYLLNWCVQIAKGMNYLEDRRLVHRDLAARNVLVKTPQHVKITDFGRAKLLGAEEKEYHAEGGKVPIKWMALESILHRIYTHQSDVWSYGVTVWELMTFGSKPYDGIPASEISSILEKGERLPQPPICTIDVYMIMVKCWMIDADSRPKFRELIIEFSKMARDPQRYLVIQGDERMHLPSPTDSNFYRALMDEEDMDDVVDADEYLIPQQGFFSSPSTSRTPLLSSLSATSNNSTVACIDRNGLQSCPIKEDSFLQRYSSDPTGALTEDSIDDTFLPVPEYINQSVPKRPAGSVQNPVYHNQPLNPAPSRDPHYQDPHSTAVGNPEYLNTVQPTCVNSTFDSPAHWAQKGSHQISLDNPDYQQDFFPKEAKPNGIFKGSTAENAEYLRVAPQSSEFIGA
Experimental: as §8, §9, §10

[3] = molecular target: EGFR-L858R/T790M (Homo sapiens (Human), UniProt P00533, L858R/T790M); experiment: In vitro EGFR kinase activity assay (Z'-Lyte); assay type: biochemical; details: read-out: Inhibitory activity on EGFR kinase (IC50, nM) T790M/L858R;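 further: Cell-free kinase reaction with peptide substrate and ATP, 1.5 h at room temperature, development cleaving unphosphorylated peptide, 10-point dilution 0.051–1000 nM, phosphopeptide as 100% phosphorylation control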
Experimental: as §8, §9, §10

[4] = system: H1975 (non-small cell lung cancer cells, EGFR L858R/T790M); experiment: Cell proliferation and growth inhibition analysis; assay type: cell-based; details: Homo sapiens, NCI-H1975, 72 hours, read-out: Inhibitory activity on cell proliferation (IC50, μM) H1975
Experimental: (§1) Cell proliferation was evaluated by MTS assay. Cells were exposed to the process conditions for 72 hours, and the number of cells for each cell line used in the experiment was adjusted according to the absorbance value (absorbance value at 490 nm was 1.3-2.2). 6 concentration gradients (0.1 nM-10 μM) were set for the compounds to be tested, with six parallel controls for each concentration.
(§2) H1975, HCC827, A549, BT474, MCF-7, SK-BR-3 cells were cultured in the corresponding medium. Upon recovery, the cells were passaged at least two times and then used in experiments. Cells in Log phase were trypsinized and resuspended in the medium. H1975 (1000 cells per well), BT474 (1500 cells per well), MCF-7 (1500 cells per well), HCC827 (2000 cells per well), SK-BR-3 (2000 cells per well), A549 (2000 cells per well) were seeded into 96-well plates, the volume was 100 μL, and 6 rows and 7 columns were set. The plate was placed in an incubator at 37° C. of 5% carbon dioxide overnight. Compounds were dissolved in DMSO to obtain the concentration of […], and then gradually diluted to obtain the concentration of compound as […], 0.1 μM, 0.01 μM, 0.001 μM, 0.0001 μM. 2 μL of compound solution was added into 998 μL of medium, and the resulting mixture was thoroughly mixed. 100 μL of mixture was added into 96-well plate. […] After the cells were cultured for 68 hours, 20 μL of MTT (5 mg/mL) was added. After 4 hours, the supernatant was discarded and 150 μL of DMSO was added. The resulting system was shaken for 10 minutes, and the plate was read with Synergy HT (Bio TeK) (OD490). The data was calculated by GraphPad Prism version 4.0, and IC50 was obtained by non-linear regression model using dose-response curve.

[5] = system: HCC827 (non-small cell lung cancer cells, EGFR del E746-A750); experiment: Cell proliferation and growth inhibition analysis; assay type: cell-based; details: Homo sapiens, 72 hours, read-out: Inhibitory activity on cell proliferation (IC50, μM) HCC827
Experimental: as §1, §2

[6] = system: A549 (non-small cell lung cancer cells, EGFR wild-type); experiment: Cell proliferation and growth inhibition analysis; assay type: cell-based; details: Homo sapiens, 72 hours, read-out: Inhibitory activity on cell proliferation (IC50, μM) A549
Experimental: as §1, with “Cell proliferation and growth inhibition analysis: H1975 (non-small cell lung cancer cells, EGFR^L858/T790M), HCC827 (non-small cell lung cancer cells, EGFR^del E746-A750), A549 (non-small cell lung cancer cells, EGFR wild-type), BT474 (breast cancer cells, Her2 overexpression), SK-BR-3 (breast cancer cells, Her2 overexpression), MCF-7 (breast cancer cells, […]) cells were obtained from ATCC. Cell proliferation” for “Cell proliferation”

[7] = system: BT474 (breast cancer cells, Her2 overexpression); experiment: Cell proliferation and growth inhibition analysis; assay type: cell-based; details: Homo sapiens, BT-474, 72 hours, read-out: Inhibitory activity on cell proliferation (IC50, μM) BT474
Experimental: as §1, with “Cell proliferation and growth inhibition analysis: H1975 (non-small cell lung cancer cells, EGFR^L858/T790M), HCC827 (non-small cell lung cancer cells, EGFR^del E746-A750), A549 (non-small cell lung cancer cells, EGFR wild-type), BT474 (breast cancer cells, Her2 overexpression), SK-BR-3 (breast cancer cells, Her2 overexpression), MCF-7 (breast cancer cells, […]) cells were obtained from ATCC. Cell proliferation” for “Cell proliferation”

[8] = system: MCF-7; experiment: Cell proliferation and growth inhibition analysis; assay type: cell-based; details: Homo sapiens, MCF7; MCF-7 cells, 72 hours; read-out: Inhibitory activity on cell proliferation (IC50, μM) MCF-7
Experimental: as §1, with “Cell proliferation and growth inhibition analysis: H1975 (non-small cell lung cancer cells, EGFR^L858/T790M), HCC827 (non-small cell lung cancer cells, EGFR^del E746-A750), A549 (non-small cell lung cancer cells, EGFR wild-type), BT474 (breast cancer cells, Her2 overexpression), SK-BR-3 (breast cancer cells, Her2 overexpression), MCF-7 (breast cancer cells, […]) cells were obtained from ATCC. Cell proliferation” for “Cell proliferation”

[9] = system: SK-BR-3 (breast cancer cells, Her2 overexpression); experiment: Cell proliferation and growth inhibition analysis; assay type: cell-based; details: Homo sapiens; SK-BR-3 cells, 72 hours; read-out: Inhibitory activity on cell proliferation (IC50, μM) SK-BR-3
Experimental: as §1, with “Cell proliferation and growth inhibition analysis: H1975 (non-small cell lung cancer cells, EGFR^L858/T790M), HCC827 (non-small cell lung cancer cells, EGFR^del E746-A750), A549 (non-small cell lung cancer cells, EGFR wild-type), BT474 (breast cancer cells, Her2 overexpression), SK-BR-3 (breast cancer cells, Her2 overexpression), MCF-7 (breast cancer cells, […]) cells were obtained from ATCC. Cell proliferation” for “Cell proliferation”

[10] = molecular target: BLK (Homo sapiens (Human), UniProt P51451); experiment: BLK kinase activity assay (Caliper); assay type: biochemical; details: read-out: Inhibitory activity on kinase (IC50, nM) BLK
BLK, sequence (P51451 whole entry): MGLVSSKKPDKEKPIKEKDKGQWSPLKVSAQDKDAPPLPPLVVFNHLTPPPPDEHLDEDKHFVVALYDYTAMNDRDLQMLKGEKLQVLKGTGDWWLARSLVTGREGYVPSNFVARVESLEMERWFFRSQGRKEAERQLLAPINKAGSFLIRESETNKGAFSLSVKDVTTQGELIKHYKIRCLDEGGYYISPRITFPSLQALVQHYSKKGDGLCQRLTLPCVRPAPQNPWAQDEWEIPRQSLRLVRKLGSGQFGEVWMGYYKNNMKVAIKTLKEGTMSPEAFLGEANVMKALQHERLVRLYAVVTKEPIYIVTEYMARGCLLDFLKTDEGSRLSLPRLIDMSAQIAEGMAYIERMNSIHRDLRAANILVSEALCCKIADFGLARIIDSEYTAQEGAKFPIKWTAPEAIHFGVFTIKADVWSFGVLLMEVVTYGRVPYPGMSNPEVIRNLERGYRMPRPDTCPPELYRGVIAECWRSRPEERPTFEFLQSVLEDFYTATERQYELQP
Experimental: (§3) Preparation of 1× kinase matrix buffer and stop buffer.
(§4) Preparation of compound solution. The compound was dissolved in 100% DMSO to a concentration, which was 50 times of the final highest inhibiting-concentration. 100 μL of the compound solution as said above was transferred into wells of 96-well plate. The above compound solution was sequentially diluted to the final desired concentration. In two blank wells of same 96-well plate, 100 μL of 100% DMSO was added as no-compound and no-kinase control, and this plate was used as the original plate.
(§5) Preparation of intermediate plate. 10 μL of compound solution was transferred from the original plate to another 96-well plate as the intermediate plate; 90 μL of 1× kinase buffer was added into each well of the intermediate plate, and the intermediate plate was shaken for 10 min.
(§6) Preparation of assay plate. 5 μL of solution from each well of intermediate plate was added into a 384-well plate, and repeated controls were set.
(§7) Kinase reaction. 2.5× kinase solution and 2.5× peptide solution were prepared. 2.5× kinase solution was transferred into assay plate. Assay plate comprised 5 μL of the compound solution in 10% DMSO. 10 μL of 2.5× kinase solution was added in each well of 384-well assay plate. […] 2.5× peptide solution was added into each well. After incubated at 28° C. for an appropriate time, 25 μL of stop buffer was added to quench the reaction. Experimental data were collected in Caliper. Curve was fitted.

[11] = molecular target: FLT3 (Homo sapiens (Human), UniProt P36888); experiment: FLT3 kinase activity assay (Caliper); assay type: biochemical; details: read-out: Inhibitory activity on kinase (IC50, nM) FLT3
FLT3, sequence (P36888 27-993): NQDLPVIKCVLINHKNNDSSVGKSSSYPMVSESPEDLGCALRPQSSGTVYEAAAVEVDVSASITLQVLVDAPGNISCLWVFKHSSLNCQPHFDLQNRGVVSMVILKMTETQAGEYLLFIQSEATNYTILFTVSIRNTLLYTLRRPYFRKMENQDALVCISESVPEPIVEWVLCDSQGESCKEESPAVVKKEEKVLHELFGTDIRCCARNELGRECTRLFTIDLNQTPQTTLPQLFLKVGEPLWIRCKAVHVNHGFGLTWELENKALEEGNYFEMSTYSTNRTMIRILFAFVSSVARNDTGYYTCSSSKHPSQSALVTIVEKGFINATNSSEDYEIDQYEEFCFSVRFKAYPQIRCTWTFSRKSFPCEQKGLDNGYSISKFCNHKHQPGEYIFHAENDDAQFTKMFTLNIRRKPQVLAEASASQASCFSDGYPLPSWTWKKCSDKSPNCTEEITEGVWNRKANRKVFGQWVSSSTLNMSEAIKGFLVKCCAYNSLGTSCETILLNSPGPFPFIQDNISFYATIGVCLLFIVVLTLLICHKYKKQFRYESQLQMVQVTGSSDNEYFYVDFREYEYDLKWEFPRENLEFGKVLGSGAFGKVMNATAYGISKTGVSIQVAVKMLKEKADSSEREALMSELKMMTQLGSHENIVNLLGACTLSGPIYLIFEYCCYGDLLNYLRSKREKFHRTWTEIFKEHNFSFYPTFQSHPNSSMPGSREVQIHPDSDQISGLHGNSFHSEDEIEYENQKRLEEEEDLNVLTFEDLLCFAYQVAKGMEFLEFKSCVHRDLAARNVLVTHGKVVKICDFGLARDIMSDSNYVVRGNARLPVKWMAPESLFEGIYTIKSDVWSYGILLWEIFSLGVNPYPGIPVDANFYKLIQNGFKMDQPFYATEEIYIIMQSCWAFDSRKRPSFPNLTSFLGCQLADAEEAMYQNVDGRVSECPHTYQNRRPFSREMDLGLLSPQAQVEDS
Experimental: as §3, §4, §5, §6, §7

[12] = molecular target: EGFR-T790M (Homo sapiens (Human), UniProt P00533, T790M); experiment: In vitro EGFR kinase activity assay (Z'-Lyte); details: read-out: Inhibitory activity on EGFR kinase (IC50, nM) T790M
EGFR-T790M, sequence (P00533 25-1210 T790M): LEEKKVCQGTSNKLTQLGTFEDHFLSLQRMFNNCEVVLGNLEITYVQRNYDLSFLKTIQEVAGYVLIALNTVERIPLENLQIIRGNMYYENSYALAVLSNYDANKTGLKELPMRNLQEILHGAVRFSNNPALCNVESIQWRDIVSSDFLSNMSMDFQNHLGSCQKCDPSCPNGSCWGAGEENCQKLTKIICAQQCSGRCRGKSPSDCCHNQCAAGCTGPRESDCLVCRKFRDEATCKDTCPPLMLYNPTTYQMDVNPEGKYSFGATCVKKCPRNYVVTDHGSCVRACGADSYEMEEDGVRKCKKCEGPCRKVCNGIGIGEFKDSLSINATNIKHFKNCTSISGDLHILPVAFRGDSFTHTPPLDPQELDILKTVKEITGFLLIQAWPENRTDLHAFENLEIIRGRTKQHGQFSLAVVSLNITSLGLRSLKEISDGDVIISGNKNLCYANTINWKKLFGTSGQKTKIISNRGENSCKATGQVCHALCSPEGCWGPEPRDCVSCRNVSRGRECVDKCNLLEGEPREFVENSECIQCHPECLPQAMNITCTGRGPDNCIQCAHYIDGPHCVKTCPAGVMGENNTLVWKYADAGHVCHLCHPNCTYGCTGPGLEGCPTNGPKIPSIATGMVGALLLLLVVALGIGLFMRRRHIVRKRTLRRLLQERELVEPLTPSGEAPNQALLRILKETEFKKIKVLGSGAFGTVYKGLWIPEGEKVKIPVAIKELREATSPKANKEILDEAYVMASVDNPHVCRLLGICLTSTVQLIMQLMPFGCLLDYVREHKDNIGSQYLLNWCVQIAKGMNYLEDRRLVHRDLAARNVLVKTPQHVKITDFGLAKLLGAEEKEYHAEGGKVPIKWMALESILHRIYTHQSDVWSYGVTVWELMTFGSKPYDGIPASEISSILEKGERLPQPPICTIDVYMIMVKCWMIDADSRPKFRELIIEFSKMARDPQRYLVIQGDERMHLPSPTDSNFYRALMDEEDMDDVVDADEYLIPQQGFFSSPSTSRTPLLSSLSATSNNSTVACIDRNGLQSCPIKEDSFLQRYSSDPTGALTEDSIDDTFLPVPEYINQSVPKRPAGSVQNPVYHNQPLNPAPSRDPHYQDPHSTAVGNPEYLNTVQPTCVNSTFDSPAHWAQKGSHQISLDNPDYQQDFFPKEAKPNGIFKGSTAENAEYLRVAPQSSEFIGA
Experimental: as §8, §9, §10

SMILES | IC50 [1] [nM] | IC50 [2] [nM] | IC50 [3] [nM] | IC50 [4] [µM] | IC50 [5] [µM] | IC50 [10] [nM] | IC50 [11] [nM] | IC50 [6] [µM] | IC50 [7] [µM] | IC50 [8] [µM] | IC50 [9] [µM] | IC50 [12] [nM]
COc1ccc(Nc2ncc3ncc(=O)n(-c4ccc(NC(=O)/C=C/CN(C)C)cc4)c3n2)cc1 [Compound 009, 4-(dimethylamino)-N-(4-(2-(4-methoxyphenylamino)-7-oxo-8(7H)-pteridin-yl)phenyl)-2-buteneamide] | 60.7 | 81.1 | 39.1 | 4.65 | 0.91 | 5310 | 152 | 2.24 | 0.84 | 2.41 | 1.15 | 10.9
CCC(=O)Nc1ccc(-n2c(=O)cnc3cnc(Nc4ccc(OC)cc4)nc32)cc1 [Compound 008, N-(4-(2-(4-methoxyphenylamino)-7-oxo-8(7H)-pteridin-yl)phenyl) propionamide] | > 10000 | > 10000 | > 10000 | > 10 | > 10 | > 10000 | 115 | 6.12 | > 10 | > 10 | > 10 | > 10000
CCC(=O)Nc1cccc(-n2c(=O)cnc3cnc(Nc4ccc(OC)cc4)nc32)c1 [Compound 007, N-(3-(2-(4-methoxyphenylamino)-7-oxo-8(7H)-pteridin-yl)phenyl) propionamide] | > 10000 | > 10000 | > 10000 | > 10 | > 10 | > 10000 | 1490 | > 10 | > 10 | > 10 | > 10 | > 10000
COc1ccc(Nc2ncc3ncc(=O)n(-c4ccc(N)cc4)c3n2)cc1 [Compound 001] | > 10000 | > 10000 | > 10000 | > 10 | > 10 | > 10000 | 27 | > 10 | > 10 | > 10 | > 10 | > 10000
C=CC(=O)Nc1cccc(-n2c(=O)cnc3cnc(Nc4ccc(Cl)cc4)nc32)c1 [Compound 017, N-(3-(2-(4-chlorophenylamino)-7-oxo-8(7H)-pteridin-yl)phenyl) acrylamide] | 67 | 84.8 | 70.3 | 0.82 | 0.163 | 156 | 2820 |  |  |  |  | 

Second part, led by results:

IC50 [1] [nM] | IC50 [2] [nM] | IC50 [3] [nM] | IC50 [4] [µM] | IC50 [5] [µM] | IC50 [10] [nM] | IC50 [11] [nM] | SMILES | IC50 [6] [µM] | IC50 [7] [µM] | IC50 [8] [µM] | IC50 [9] [µM] | IC50 [12] [nM]
10.6 | 10.1 | 8.4 | 0.133 | 0.009 | 69 | 1590 | C=CC(=O)Nc1cccc(-n2c(=O)cnc3cnc(Nc4ccc(OC)cc4)nc32)c1 [Compound 006, N-(3-(2-(4-methoxyphenylamino)-7-oxo-8(7H)-pteridin-yl)phenyl) acrylamide] | 0.73 | 2.24 | 15 | 2.35 | 19.4
446 | 546 | 606 | 2.75 | 1.29 | 3040 | 128 | C=CC(=O)Nc1ccc(-n2c(=O)cnc3cnc(Nc4ccc(OC)cc4)nc32)cc1 [Compound 002, N-(4-(2-(4-methoxyphenylamino)-7-oxo-8(7H)-pteridin-yl)phenyl)acrylamide] | 1.23 | > 10 | 1.51 | 1.57 | 665
16.1 | 26.4 | 113 | 77.8 | 68.1 | 7480 | 129 | C=CC(=O)Nc1ccc(-n2c(=O)cnc3cnc(Nc4ccccc4)nc32)cc1 [Compound 014, N-(4-(7-oxo-2-(phenylamino)-8(7H)-pteridin-yl)phenyl) acrylamide] |  |  |  |  | 
